# Results as given in US20250179559A1, “DUAL-LUCIFERASE REPORTER GENE DETECTION SYSTEM, FLUORESCENCE DETECTION KIT, AND METHOD FOR DETECTING LUMINESCENT SIGNAL OF LUCIFERASE” (BGI SHENZHEN, priority 2022, published 2025).
# Columns and labels:
# [1] = test system: Gaussia luciferase mutant G2-F11; assay: Luminescence intensity of substrates with Gaussia luciferase mutant G2-F11; assay type: biochemical, Gaussia princeps; settings: mutant G2-F11, among tested substrates
# Method: (§1) The two luciferases were diluted to a concentration of 1 μg/mL with a diluent (50 mM Tris-HCl pH 8.0, 100 mM NaCl, 0.1% (v/v) Tween-20), and 10 μL of each luciferase was taken and added to a black 96-well plate. The substrate was diluted to 10 μM with the same diluent, 90 μL of the substrate was taken add into the 96-well plate containing the above luciferases (90 μL/well), and the luminescence intensity was read by using a light-emitting module of a microplate reader.
# (§2) According to the method as described in Example 1, an expression vector containing the gene of the Gaussia luciferase mutant and the gene of the Pleuromamma xiphias luciferase mutant was constructed, a recombinant strain was constructed, the mutant-type luciferases were expressed, and the luminous intensity of substrates and luciferases was detected.
# [2] = test system: wild-type Gaussia luciferase (WT-Gluc); assay: Luminescence intensity of substrates with wild-type Gaussia luciferase; assay type: biochemical, Gaussia princeps; settings: for Gluc fluorescence intensity: luciferase 1 μg/mL (10 μL), substrate 10 μM (90 μL), microplate reader; for Gluc relative intensity: percentage relative to wild-type Pleuromamma xiphias luciferase with compound N0, substrate 10 μM
# Method: (§3) [drawing 6] • (3) According to the conventional methods, such as the method disclosed in PCT/CN2017/082180, an expression vector (plasmid) containing the wild-type Gaussia luciferase gene and the wild-type Pleuromamma xiphias luciferase gene was constructed. The plasmid was transformed into Escherichia coli OrigamiB (DE3), which was coated on a plate, and a single colony was picked from the plate, cultured overnight at 37° C., diluted at a ratio of 1:100 on the next day, transferred to 3 mL of fresh LB medium containing ampicillin resistance (100 μg/mL), cultured with shaking at 37° C. and 200 rpm for 4 hours, and cooled on ice for 1 hour. The inducer IPTG was added at a final concentration of 1 mM and the induction was preformed overnight at 16° C. On the next day, the bacteria were collected by centrifugation, resuspended with 500 μL lysate (50 mM Tris-HCl pH 8.0, 500 mM NaCl, 0.2% lysozyme, PMSF), lysed for 20 minutes at room temperature, frozen with liquid nitrogen and thawed for 3 times, and centrifuged for 30 minutes at 18,000 g. The supernatant was taken, which was purified by using a centrifugal Ni column. The protein eluted by Ni column was dialyzed with dialysis buffer (25 mM Tris, pH 8.0, 250 mM NaCl) at 4° C. overnight. The concentration of luciferase was accurately determined by using a BCA quantitative kit (Thermoscientific™ Pierce™ BCA protein assay kit). The two luciferases were diluted to a concentration of 1 μg/mL with a diluent (50 mM Tris-HCl pH 8.0, 100 mM NaCl, 0.1% (v/v) Tween-20), and 10 μL of each luciferase was taken and added to a black 96-well plate. The substrate was diluted to 10 μM with the same diluent, 90 μL of the substrate was taken add into the 96-well plate containing the above luciferases (90 μL/well), and the luminescence intensity was read by using a light-emitting module of a microplate reader. The test data of the Gaussia luciferase and the Pleuromamma xiphias luciferase on different substrates were shown in Table 1, in which the relative intensity is a percentage relative to the activity of wild-type Pleuromamma xiphias luciferase and compound N0. […] That is, in this dual-luciferase reporter gene detection system, the optimal luminescent combination with high fluorescence brightness and low cross-interference obtained after screening is using f-CTZ to detect the Gaussia luciferase, and using N0 to detect the Pleuromamma xiphias luciferase.
# [3] = test system: Gaussia luciferase mutant E1-A3; assay: Luminescence intensity of substrates with Gaussia luciferase mutant E1-A3; assay type: biochemical, Gaussia princeps; settings: mutant E1-A3, among tested substrates
# Method: as §1, §2
# [4] = test system: wild-type Pleuromamma xiphias luciferase (WT-Pxluc); assay: Luminescence intensity of substrates with wild-type Pleuromamma xiphias luciferase; assay type: biochemical; settings: for Pxluc fluorescence intensity: luciferase 1 μg/mL (10 μL), substrate 10 μM (90 μL), microplate reader; for Pxluc relative intensity: percentage relative to wild-type Pleuromamma xiphias luciferase with compound N0, substrate 10 μM
# Method: as §3
# [5] = test system: Gaussia luciferase mutant G2-F8; assay: Luminescence intensity of substrates with Gaussia luciferase mutant G2-F8; assay type: biochemical, Gaussia princeps; settings: mutant G2-F8, among tested substrates
# Method: as §1, §2
# [6] = test system: Pleuromamma xiphias luciferase mutant P26-95; assay: Luminescence intensity of substrates with Pleuromamma xiphias luciferase mutant P26-95; assay type: biochemical; settings: mutant P26-95, among tested substrates
# Method: as §1
# Mutant-Type Pleuromamma xiphias Luciferase P26-95: • d) P26-95: based on SEQ ID NO: 3, the following sites were mutated: G83A, and G84P.
# as §2
SMILES,Gluc fluorescence intensity [2],Gluc relative intensity [2],Pxluc fluorescence intensity [4],Pxluc relative intensity [4],fluorescence intensity compared among substrates (in words) [1],"fluorescence intensity compared among substrates (in words) ([2]; wild-type Gaussia luciferase, among tested substrates)",fluorescence intensity compared among substrates (in words) [3],fluorescence intensity compared among substrates (in words) [5],"fluorescence intensity compared among substrates (in words) ([4]; wild-type Pleuromamma xiphias luciferase, among tested substrates)",fluorescence intensity compared among substrates (in words) [6]
O=c1c(Cc2ccc(F)cc2)nc2c(Cc3ccccc3)[nH]c(-c3ccc(O)cc3)cn1-2 [f-CTZ],10186.5,6.4%,69138,43.2%,highest fluorescence intensity,highest fluorescence intensity,highest fluorescence intensity,highest fluorescence intensity,–,–
O=c1c(Cc2ccc(O)cc2)nc2c(Cc3ccccc3)[nH]c(-c3cccc(O)c3)cn1-2 [Substrate N0],5338,3.3%,160037,100%,–,–,–,–,highest fluorescence intensity,highest fluorescence intensity
O=c1c(Cc2ccc(F)cc2)nc2c(Cc3ccccc3)[nH]c(/C=C/c3ccccc3)cn1-2 [Substrate N8],12,0.0%,1426,0.9%,–,–,–,–,–,–
O=c1c(Cc2ccc(F)cc2)nc2c(Cc3ccccc3)[nH]c(Cc3ccccc3)cn1-2 [Substrate N2],0,0.0%,3026,1.9%,–,–,–,–,–,–
O=c1c(Cc2ccc(O)cc2)nc2c(Cc3ccccc3)[nH]c(Cc3ccccc3)cn1-2 [Substrate N1],0,0.0%,1173,0.7%,–,–,–,–,–,–
O=c1c(Cc2ccc(O)cc2)nc2c(Cc3ccccc3)[nH]c(/C=C/c3ccccc3)cn1-2 [Substrate N7],135,0.1%,4430,2.8%,–,–,–,–,–,–

# Now from value to compound, other results behind:
Gluc fluorescence intensity [2],Gluc relative intensity [2],Pxluc fluorescence intensity [4],Pxluc relative intensity [4],SMILES,fluorescence intensity compared among substrates (in words) [1],"fluorescence intensity compared among substrates (in words) ([2]; wild-type Gaussia luciferase, among tested substrates)",fluorescence intensity compared among substrates (in words) [3],fluorescence intensity compared among substrates (in words) [5],"fluorescence intensity compared among substrates (in words) ([4]; wild-type Pleuromamma xiphias luciferase, among tested substrates)",fluorescence intensity compared among substrates (in words) [6]
15,0.0%,3464,2.2%,Nc1ccc(-c2cn3c(=O)c(Cc4ccc(F)cc4)nc-3c(Cc3ccccc3)[nH]2)cc1 [Substrate N6],–,–,–,–,–,–
17,0.0%,4137,2.6%,CN(C)c1ccc(-c2cn3c(=O)c(Cc4ccc(F)cc4)nc-3c(Cc3ccccc3)[nH]2)cc1 [Substrate N4],–,–,–,–,–,–
263,0.2%,1520,0.9%,CN(C)c1ccc(-c2cn3c(=O)c(Cc4ccc(O)cc4)nc-3c(Cc3ccccc3)[nH]2)cc1 [Substrate N3],–,–,–,–,–,–
457,0.3%,4430,2.8%,Nc1ccc(-c2cn3c(=O)c(Cc4ccc(O)cc4)nc-3c(Cc3ccccc3)[nH]2)cc1 [Substrate N5],–,–,–,–,–,–
